How the values were obtained:
NMDA NR1/NR2B receptor = target: T1, NMDA NR1/NR2B receptor (Homo sapiens, UniProt Q05586+Q13224); assay: In vitro NMDA NR1/NR2B cell assay (FLIPR, intracellular calcium induced by glycine/glutamate); type: cell-based; conditions: HEK293 cells expressing NMDA NR1/NR2B; 20 μM glycine, 1 μM glutamate; read-out: IC50 (in vitro NR2B affinity, FLIPR assay)
T1 construct: host or cells: HEK293, tetracycline-inducible expression
Method: A human HEK293 cell line with tetracyclin-inducible expression of NMDA NR1/NR2B receptor was used as a test system for compound efficacy and potency. The cell line was purchased from ChanTest, Catalog #CT6121. Compound activity was determined by measuring the effect of compounds on intracellular calcium concentration induced by glycine/glutamate agonism in a FLIPRtetra system (Molecular Devices).
The cells were obtained as frozen cells in cryo-vials and stored until use at −150° C. Cells were grown in culture medium (DMEM/F12, 10% FBS, 5 μg/mL Blasticidin, 150 μg/mL Zeozin, 500 μg/mL Geneticin). […] For sub-culturing the cells were detached from flasks by Versene. For the assay, cells were detached, washed twice with induction medium (DMEM/F12 without glutamine, 10% FBS, 2 μg/mL Tetracycline, 2 mM Ketamine) and seeded to 384 well pure coat amine plates (Becton Dickinson, 50000 cells per well in 50 μl) 48 h prior to assay in induction medium.
The test compounds were dissolved in 100% DMSO at a concentration of 10 mM and in a first step diluted in DMSO to a concentration of 5 mM, followed by serial dilution steps in 100% DMSO. Dilution factor and number of dilution steps may vary according to needs. Typically 8 different concentrations by 1:5 dilutions were prepared in duplicate, further intermediate dilutions (1:37.5) of the substances were carried out with aqueous assay buffer (137 mM NaCl, 4 mM KCl, 1.8 mM CaCl2, 10 mM HEPES, 10 mM Glucose, pH 7.4) resulting in a compound concentration 3 times above the final test concentration and DMSO at 2.7% resulting in 0.9% final DMSO concentration in the assay.
At the assay day cells were washed 3× with assay buffer (as described above), 10 μL buffer remained in the wells after washing. 10 μL Ca kit loading buffer (AAT Bioquest; prepared from the kit containing the following components: Component A: Fluo-8 NW dissolved in 200 μL DMSO and 20 μl of this solution are mixed with 10 ml buffer prepared out of component B and C, Component B: 10× Pluronic® F127 Plus diluted 1:10 in component C, Component C: HHBS (Hanks with 20 mM Hepes) was added to the cells and the plates were incubated with lid for 60 minutes at room temperature. 20 μl assay buffer containing 60 μM glycine (20 μM final) and 3 μM glutamate (1 μM final) was added to column 1-23, column 24 got assay buffer without glycine/glutamate to serve as negative unstimulated control. Fluorescence (indicating the calcium influx as a result of the NR1/NR2B ion channel activation) was read on the FLIPRtetra device for 60 seconds to monitor the glutamate induced effects. After 2 minutes 20 μL of compound dilution prepared as described above or controls (row 1-22) in assay buffer were carefully added to the wells. […] The average of 2 measurements at 5 minutes and […] 10 seconds after compound addition is calculated and further used for IC50 calculations. Each assay microtiter compound dilution plate contained wells (in column 23 or 24) with DMSO controls instead of compound as controls for glycine/glutamate induced fluorescence (high controls) and wells with 1 μM of a reference NR2B NAM as low controls (Compound 22; reference: Layton, Mark E et al, ACS Chemical Neuroscience 2011, 2(7), 352-362).
The output file of the reader contains the well number and measured average fluorescence units. For data evaluation and calculation, the measurement of the low control was set as 0% control and the measurement of the high control was set as 100% control. The IC50 values were calculated using the standard 4 parameter logistic regression formula. Calculation: [y=(a−d)/(1+(x/c)^b)+d], a=low value, d=high value; x=conc M; c=IC50 M; b=slope.

Nav1.6 = Nav1.6 (Homo sapiens, UniProt Q9UQD0); assay: Nav 1.6 inhibition, IonWorks Quattro electrophysiology; type: cell-based
Method: Determination of Nav 1.6.Inhibition
IonWorks Quattro electrophysiological platform
The compounds were prepared in DMSO at 300× the final assay concentrations of 1 and 5 μM.
The 300×DMSO stock solutions were transferred into assay plates where 2 μl per well of each 300× stock solution were placed. All assay plates were stored at −80° C. until the day of assay.
On the day of the assay, the appropriate assay plate was thawed at room temperature, centrifuged, and 198 μl of external recording solution was added and mixed thoroughly. This provided a 1:100 dilution. A further 1:3 dilution occurred upon addition to the cells in the IonWorks Quattro electrophysiological platform, giving a 1:300 dilution in total. On each assay plate, at least 8 wells were reserved for vehicle control (0.3% DMSO) and at least 8 wells for each positive control specific to the cell line tested. The positive controls were tested at a maximal blocking and an approximate IC50 concentration. As positive control Lidocaine at concentrations of 30 and 1000 μM was used.
The solutions for recording Nav1.6 currents were as follows:
Amphotericin B was used to obtain electrical access to the cell interior at a final concentration of 200 μg/ml in internal recording solution.
State-dependent inhibition: Sodium channels when held at depolarized potential or long test pulse, the channels open and inactivate and then stay inactivated until the membrane potential is stepped back to hyperpolarized potentials, when the inactivated channels recover from inactivation into closed state.
Cells were held at −120 mV. In order to completely inactivate the sodium channels (pulse 1), the cells were pulsed to +0 mV for 2500 ms and stepped back to −120 mV for 10 ms (to completely recover from inactivation, however channels that had drugs bound to them will not recover from inactivation) before stepping to +0 mV for 20 ms (pulse 2).
Both the positive and vehicle control data associated with each cell line assayed are shown below as an example. The mean is shown for each positive and negative control as solid symbol with the total number of individual well replicates given next to the solid symbol. In addition, the individual data of each well are shown on the graph as open symbols so that the variation about the mean value can be readily assessed.
Shown below are the assay controls for the Nav1.6 IonWorks Quattro assay.
Tables 3 and 4 show the normalized percentage inhibition of Nav1.6 channel. […] (see also the figure Assay Control Results above).

MDR1 (P-gp) = target: T2, MDR1 (P-gp) (Homo sapiens, UniProt P08183); assay: MDCK assay P-gp (permeability across MDCK-MDR1 monolayers); type: in vitro ADME
T2 construct: expressed in transfected cells; host or cells: MDCKII (Madin-Darby canine kidney)
Method: The MDCK assays provide information on the potential of a compound to pass the blood brain barrier. Permeability measurements across polarized, confluent MDCK-MDR1 cell monolayers grown on permeable filter supports are used as an in vitro absorption model: apparent permeability coefficients (PE) of the compounds across the MDCK-MDR1 cell monolayers are measured (pH 7.4, 37° C.) in apical-to-basal (AB) and basal-to-apical (BA) transport direction. The AB permeability (PEAB) represents drug absorption from the blood into the brain and the BA permeability (PEBA) drug efflux from the brain back into the blood via both, passive permeability as well as active transport mechanisms mediated by efflux and uptake transporters that are expressed on the MDCK-MDR1 cells, predominantly by the overexpressed human MDR1. Identical or similar permeabilities in both transport directions indicate passive permeation (PEBA/PEAB≤1), vectorial permeability points to additional active transport mechanisms. Higher PEBA than PEAB (PEBA/PEAB>5) indicates the involvement of active efflux mediated by MDR1, which might compromise the goal to achieve sufficient brain exposure. Therefore, this assay provides valuable support for selection of compounds applicable for further in vivo testing. High permeability not limited by efflux at the blood brain barrier is a favorable characteristic for compounds that are to be used for drugs acting primarily in the CNS.
Apparent permeability coefficients (Papp) of the compounds across the MDCK-MDR1 monolayers (MDCKII cells transfected with human MDR1 cDNA expression plasmid) are measured in apical-to-basal (AB) and basal-to-apical (BA) direction. MDCK-MDR1 cells (6×10^5 cells/cm^2) are seeded on filter inserts (Corning, Transwell, polycarbonate, 0.4 μm pore size) and cultured for 9 to 10 days. Compounds dissolved in DMSO stock solution (1-20 mM) are diluted with HTP-4 aqueous buffer (128.13 mM NaCl, 5.36 mM KCl, 1 mM MgSO4, 1.8 mM CaCl2, 4.17 mM NaHCO3, 1.19 mM Na2HPO4, 0.41 mM NaH2PO4, 15 mM HEPES, 20 mM glucose, pH 7.4) supplemented with 0.25% BSA to prepare the transport solutions (final concentration: 1 or 10 μM, final DMSO<=0.5%). The transport solution is applied to the apical or basolateral donor side for measuring A-B or B-A permeability, respectively. The receiver side contains HTP-4 buffer supplemented with 0.25% BSA. Samples are collected at the start and end of experiment from the donor and at various time intervals for up to 2 hours also from the receiver side for concentration measurement by HPLC-MS/MS (RapidFire High-throughput MS System (Agilent) coupled to QTrap 6500 (AB Sciex) or TSQ Vantage (Thermo Scientific)). Sampled receiver volumes are replaced with fresh receiver solution. Efflux ratio is calculated dividing the Papp (b-a) values by the Papp (a-b) values.

[1] = Metabolic stability in pooled human liver microsomes; type: in vitro ADME; conditions: pH 7.6, 1 μM compound, 37° C., NADPH, read-out: Half-life - t½ human liver microsomes
Description: Stability in human liver microsomes refers to the susceptibility of compounds to biotransformation in the context of selecting and/or designing drugs with favorable pharmacokinetic properties. The primary site of metabolism for many drugs is the liver. Human liver microsomes contain the cytochrome P450s (CYPs), and thus represent a model system for studying drug metabolism in vitro Enhanced stability in human liver microsomes is associated with several advantages, including increased bioavailability and adequate half-life, which can enable lower and less frequent dosing of patients. Thus, enhanced stability in human liver microsomes is a favorable characteristic for compounds that are to be used for drugs.
The metabolic degradation of the test compound was assayed at 37° C. with pooled human liver microsomes. The final incubation volume of 60 μl per time point contains TRIS buffer pH 7.6 at room temperature (0.1 M), magnesium chloride (5 mM aqueous solution), microsomal protein (1 mg/mL for human) and the test compound at a final concentration of 1 μM. Following a short preincubation period at 37° C., the reactions were initiated by addition of betanicotinamide adenine dinucleotide phosphate, reduced form (NADPH, 1 mM), and terminated by transferring an aliquot into acetonitril after different time points. After centrifugation (10000 g, 5 min), an aliquot of the supernatant was assayed by HPLC-MS/MS as described above for the MDCK assay P-gp for the amount of parent compound. The half-life was determined by the slope of the semi-logarithmic plot of the concentration-time profile.

T1 sequence (Q13224 27-1484, other chains not shown): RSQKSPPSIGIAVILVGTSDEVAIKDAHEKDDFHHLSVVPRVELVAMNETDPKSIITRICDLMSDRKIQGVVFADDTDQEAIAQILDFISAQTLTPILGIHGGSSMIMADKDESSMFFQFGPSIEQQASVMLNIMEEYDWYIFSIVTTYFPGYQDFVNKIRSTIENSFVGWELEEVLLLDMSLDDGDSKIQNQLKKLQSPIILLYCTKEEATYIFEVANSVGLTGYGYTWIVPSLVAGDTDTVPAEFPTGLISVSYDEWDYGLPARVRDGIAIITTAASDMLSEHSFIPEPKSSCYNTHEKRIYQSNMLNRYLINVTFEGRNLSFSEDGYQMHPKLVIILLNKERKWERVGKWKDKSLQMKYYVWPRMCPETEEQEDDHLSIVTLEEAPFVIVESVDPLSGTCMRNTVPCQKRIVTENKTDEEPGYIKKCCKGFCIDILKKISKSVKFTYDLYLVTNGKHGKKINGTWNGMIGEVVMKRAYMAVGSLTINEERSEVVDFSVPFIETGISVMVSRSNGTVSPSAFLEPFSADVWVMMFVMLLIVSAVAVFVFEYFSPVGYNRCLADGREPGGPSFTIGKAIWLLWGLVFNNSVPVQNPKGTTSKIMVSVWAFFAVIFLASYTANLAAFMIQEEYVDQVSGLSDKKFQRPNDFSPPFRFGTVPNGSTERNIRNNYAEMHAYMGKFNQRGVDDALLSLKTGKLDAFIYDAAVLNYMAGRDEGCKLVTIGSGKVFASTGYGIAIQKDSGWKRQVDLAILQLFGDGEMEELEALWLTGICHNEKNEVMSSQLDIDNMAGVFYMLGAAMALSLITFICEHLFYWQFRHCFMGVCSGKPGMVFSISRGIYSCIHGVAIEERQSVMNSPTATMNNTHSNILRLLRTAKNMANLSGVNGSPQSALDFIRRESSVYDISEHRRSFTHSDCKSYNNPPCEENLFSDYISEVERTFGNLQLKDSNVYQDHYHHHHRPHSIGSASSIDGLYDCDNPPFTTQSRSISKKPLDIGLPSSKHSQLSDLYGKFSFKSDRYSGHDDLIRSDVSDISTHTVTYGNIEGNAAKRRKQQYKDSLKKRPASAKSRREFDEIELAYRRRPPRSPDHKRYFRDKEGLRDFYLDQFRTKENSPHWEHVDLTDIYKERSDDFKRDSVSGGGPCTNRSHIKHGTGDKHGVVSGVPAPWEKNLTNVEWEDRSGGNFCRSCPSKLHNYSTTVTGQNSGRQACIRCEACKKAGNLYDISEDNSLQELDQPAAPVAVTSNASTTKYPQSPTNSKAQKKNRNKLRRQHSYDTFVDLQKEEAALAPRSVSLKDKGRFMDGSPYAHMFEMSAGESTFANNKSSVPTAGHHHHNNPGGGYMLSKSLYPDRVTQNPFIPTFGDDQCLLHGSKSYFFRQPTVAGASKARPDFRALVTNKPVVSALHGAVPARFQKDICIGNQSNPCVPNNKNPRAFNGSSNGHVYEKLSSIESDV
Nav1.6, sequence (Q9UQD0 whole entry): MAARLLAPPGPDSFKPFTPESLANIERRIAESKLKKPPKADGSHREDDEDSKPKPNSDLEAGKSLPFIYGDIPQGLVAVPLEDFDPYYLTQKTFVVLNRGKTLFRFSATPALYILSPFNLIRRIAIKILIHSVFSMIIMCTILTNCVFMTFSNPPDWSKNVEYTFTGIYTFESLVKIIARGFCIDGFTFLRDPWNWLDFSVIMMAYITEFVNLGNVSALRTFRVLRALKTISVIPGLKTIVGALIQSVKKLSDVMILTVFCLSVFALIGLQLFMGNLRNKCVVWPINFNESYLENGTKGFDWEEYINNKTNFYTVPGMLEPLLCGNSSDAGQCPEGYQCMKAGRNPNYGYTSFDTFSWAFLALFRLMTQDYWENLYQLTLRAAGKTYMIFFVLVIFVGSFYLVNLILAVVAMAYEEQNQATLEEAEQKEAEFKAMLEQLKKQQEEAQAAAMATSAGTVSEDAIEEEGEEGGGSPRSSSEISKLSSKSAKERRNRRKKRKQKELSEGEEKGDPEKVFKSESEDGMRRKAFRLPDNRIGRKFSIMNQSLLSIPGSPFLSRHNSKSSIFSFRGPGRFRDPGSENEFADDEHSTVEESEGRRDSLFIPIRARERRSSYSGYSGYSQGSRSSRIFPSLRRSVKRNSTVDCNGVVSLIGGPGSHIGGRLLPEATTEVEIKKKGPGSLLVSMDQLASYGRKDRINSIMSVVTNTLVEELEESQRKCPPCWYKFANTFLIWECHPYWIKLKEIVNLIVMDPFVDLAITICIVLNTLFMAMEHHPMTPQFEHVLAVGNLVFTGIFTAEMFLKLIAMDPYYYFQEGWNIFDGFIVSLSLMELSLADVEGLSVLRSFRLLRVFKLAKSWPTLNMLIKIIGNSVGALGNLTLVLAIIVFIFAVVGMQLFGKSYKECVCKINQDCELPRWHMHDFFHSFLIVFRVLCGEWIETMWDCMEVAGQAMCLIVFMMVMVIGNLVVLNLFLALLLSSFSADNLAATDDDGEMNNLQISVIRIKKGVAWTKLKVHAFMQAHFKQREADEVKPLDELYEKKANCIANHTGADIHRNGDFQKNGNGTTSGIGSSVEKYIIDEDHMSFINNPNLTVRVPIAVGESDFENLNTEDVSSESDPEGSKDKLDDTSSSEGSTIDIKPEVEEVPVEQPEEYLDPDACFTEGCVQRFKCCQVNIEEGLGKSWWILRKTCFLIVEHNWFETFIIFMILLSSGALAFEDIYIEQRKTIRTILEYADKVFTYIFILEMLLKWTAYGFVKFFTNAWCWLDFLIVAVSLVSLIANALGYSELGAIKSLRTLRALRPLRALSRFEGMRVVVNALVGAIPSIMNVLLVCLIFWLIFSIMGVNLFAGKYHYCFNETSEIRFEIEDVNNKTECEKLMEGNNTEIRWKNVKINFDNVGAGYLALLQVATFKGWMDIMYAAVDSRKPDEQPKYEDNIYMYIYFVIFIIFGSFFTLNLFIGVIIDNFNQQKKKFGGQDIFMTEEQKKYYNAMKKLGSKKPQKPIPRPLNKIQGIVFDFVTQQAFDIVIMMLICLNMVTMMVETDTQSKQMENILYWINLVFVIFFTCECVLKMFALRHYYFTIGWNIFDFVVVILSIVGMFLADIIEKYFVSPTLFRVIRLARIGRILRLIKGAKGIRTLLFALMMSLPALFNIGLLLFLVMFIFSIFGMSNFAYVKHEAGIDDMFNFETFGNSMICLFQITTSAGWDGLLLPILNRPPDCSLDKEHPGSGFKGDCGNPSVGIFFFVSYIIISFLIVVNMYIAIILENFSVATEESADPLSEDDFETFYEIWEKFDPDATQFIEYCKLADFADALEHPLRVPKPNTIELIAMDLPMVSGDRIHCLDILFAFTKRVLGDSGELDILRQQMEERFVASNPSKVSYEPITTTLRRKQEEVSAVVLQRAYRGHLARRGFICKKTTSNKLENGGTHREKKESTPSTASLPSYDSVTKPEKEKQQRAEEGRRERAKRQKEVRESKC
T2 sequence (P08183 whole entry): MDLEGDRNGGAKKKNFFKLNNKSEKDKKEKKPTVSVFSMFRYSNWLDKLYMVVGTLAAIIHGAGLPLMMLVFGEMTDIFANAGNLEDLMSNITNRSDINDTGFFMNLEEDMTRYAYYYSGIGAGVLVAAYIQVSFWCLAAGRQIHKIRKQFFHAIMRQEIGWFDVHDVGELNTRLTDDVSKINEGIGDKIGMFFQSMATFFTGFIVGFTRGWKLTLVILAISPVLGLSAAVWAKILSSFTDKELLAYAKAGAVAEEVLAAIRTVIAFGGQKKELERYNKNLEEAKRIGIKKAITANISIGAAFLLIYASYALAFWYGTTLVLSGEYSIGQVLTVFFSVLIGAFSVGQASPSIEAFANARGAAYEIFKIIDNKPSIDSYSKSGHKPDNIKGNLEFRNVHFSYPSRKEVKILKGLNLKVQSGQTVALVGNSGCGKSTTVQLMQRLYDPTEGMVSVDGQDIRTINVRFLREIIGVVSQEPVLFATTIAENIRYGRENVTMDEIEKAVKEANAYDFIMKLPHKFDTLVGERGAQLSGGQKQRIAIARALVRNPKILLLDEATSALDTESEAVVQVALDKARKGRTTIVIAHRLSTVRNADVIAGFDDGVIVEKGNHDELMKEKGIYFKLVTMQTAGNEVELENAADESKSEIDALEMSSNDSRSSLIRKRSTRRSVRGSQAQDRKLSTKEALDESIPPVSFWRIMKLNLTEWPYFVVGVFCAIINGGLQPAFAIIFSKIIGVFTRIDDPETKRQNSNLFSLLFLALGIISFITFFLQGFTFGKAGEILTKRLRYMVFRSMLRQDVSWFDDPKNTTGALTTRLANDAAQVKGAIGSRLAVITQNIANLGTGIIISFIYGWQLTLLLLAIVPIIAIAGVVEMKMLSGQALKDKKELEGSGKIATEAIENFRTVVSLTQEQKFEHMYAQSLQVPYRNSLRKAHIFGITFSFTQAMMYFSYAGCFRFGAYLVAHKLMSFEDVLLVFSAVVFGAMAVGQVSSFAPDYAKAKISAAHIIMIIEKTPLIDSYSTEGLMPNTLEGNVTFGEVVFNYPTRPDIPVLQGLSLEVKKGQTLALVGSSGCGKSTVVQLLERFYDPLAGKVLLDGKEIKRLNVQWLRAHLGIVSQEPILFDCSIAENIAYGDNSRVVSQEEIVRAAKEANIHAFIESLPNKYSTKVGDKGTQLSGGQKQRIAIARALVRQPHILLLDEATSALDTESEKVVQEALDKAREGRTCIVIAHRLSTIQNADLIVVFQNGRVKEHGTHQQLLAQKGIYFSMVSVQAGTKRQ

SMILES	IC50 (NMDA NR1/NR2B receptor)	also measured
CNC(=O)C1CN(Cc2ccc(Oc3ccc(Cl)cc3)nc2)CCO1 (centres unmarked) [Example 16]		inhibition at 1 µM (Nav1.6; 1 μM, normalized to vehicle control (0%) and maximal inhibition control (100%)): -0.5%; inhibition at 5 µM (Nav1.6; 5 μM, normalized to vehicle control (0%) and maximal inhibition control (100%)): 7.1%; Papp A→B at 2 h (MDR1 (P-gp); apical-to-basal, MDCK-MDR1 monolayers, pH 7.4): 51 ×10⁻⁶ cm/s; efflux ratio at 2 h (MDR1 (P-gp); pH 7.4, Papp (b-a) divided by Papp (a-b), MDCK-MDR1, read-out: efflux ratio PEBA/PEAB): 0.7; half-life at 1 μM [1]: > 2.17 h
CCN(CC)CC(=O)Nc1c(C)cccc1C [Lidocaine, reference compound]		inhibition at 1000 µM (Nav1.6; read-out: maximum inhibition at P1 (not normalized)): 46.4 to 47.2%; inhibition of Nav1.6 currents (in words) (Nav1.6; reference compounds, FIG. 1 and FIG. 2): inhibited evoked currents in a concentration and use dependent manner
CNC(=O)[C@@H]1CN(Cc2ccc(Oc3cc(F)ccc3F)nc2)CCO1 [Example 40]	452 nM	
CNC(=O)[C@@H]1CN(Cc2ccc(Oc3c(C)cccc3F)nc2)CCO1 [Example 38]	419 nM	

The next lines start with results.

IC50 (NMDA NR1/NR2B receptor)	SMILES	also measured
69 nM	CNC(=O)[C@@H]1CN(Cc2ccc(Oc3ccc(Cl)cc3F)nc2)CCO1 [Example 15]	
203 nM	CNC(=O)[C@@H]1CN(Cc2ccc(Oc3c(F)cccc3F)nc2)CCO1 [Example 37]	
117 nM	CNC(=O)[C@@H]1CN(Cc2ccc(Oc3ccc(C)cc3F)nc2)CCO1 [Example 12]	
353 nM	CNC(=O)[C@@H]1CN(Cc2ccc(Oc3ccccc3)nc2)CCO1 [Example 36]	
286 nM	CNC(=O)[C@@H]1CN(Cc2ccc(Oc3cc(F)ccc3Cl)nc2)CCO1 [Example 41]	
